In paper PMC11195995, “A homogeneous time-resolved fluorescence screen to identify SIRT2 deacetylase and defatty-acylase inhibitors” (PLOS ONE, 2024):
“Also recorded” adds a separate entry of the source. Read-outs that look alike come from different tables or passages of the source.

Columns and labels:
[1] = biological target: T1, SIRT2 (Homo sapiens, UniProt Q8IXJ6); experiment: SIRT2 demyristoylase activity assay (MALDI-MS, myristoyl-H4K16 peptide); format: biochemical
T1 sequence (Q8IXJ6 34-356): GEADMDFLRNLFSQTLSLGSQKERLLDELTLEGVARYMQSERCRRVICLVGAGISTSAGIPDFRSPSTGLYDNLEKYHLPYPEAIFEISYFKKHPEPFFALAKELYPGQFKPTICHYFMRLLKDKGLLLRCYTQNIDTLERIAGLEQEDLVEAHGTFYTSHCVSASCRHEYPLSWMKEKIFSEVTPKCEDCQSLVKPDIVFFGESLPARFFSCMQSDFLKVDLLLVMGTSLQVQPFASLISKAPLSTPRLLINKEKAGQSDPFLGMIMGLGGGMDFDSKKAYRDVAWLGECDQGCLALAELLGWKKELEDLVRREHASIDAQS
Procedure: (§1) The enzymatic activity of SIRT2 was measured using a MALDI-MS—based protocol reported previously. Reactions were performed at 37°C for 2.5 min in PBS containing 1 mM DTT and 1 mM of NAD^+. Acylated H4K16 peptides were used as the substrates at the following concentrations: acetyl-H4K16, 4 μM; decanoyl-H4K16, 0.2 μM; dodecanoyl-H4K16, 0.5 μM; myristoyl-H4K16, 0.5 μM. These concentrations correspond to the enzyme’s Km for each substrate under saturating NAD^+ conditions. The enzyme concentration in each reaction was chosen such that 20% or less of the substrate was processed by the enzyme when the reactions were quenched. In dose-response assays showing a reduction in SIRT2 activity by increasing amounts of ligand, the data was fit with standard sigmoidal dose-response curves as we previously described. We report absolute IC50 values from the curves which reflect ligand concentrations that reduce the activity of the enzyme by 50% compared to control (no ligand) samples. Assays measuring the effects of ligand on SIRT1 deacetylase and SIRT6 demyristoylase activities were performed similarly, as previously described.

[2] = biological target: SIRT6 (Homo sapiens, UniProt Q8N6T7); experiment: SIRT6 demyristoylase activity assay; format: biochemical; settings: 16 μM myristoyl-H4K16, dose-response
Procedure: as §1

[3] = biological target: T1, SIRT2; experiment: SIRT2 de-decanoylase activity assay (MALDI-MS, decanoyl-H4K16 peptide); format: biochemical; settings: 0.2 μM decanoyl-H4K16, 1 mM NAD+
Procedure: as §1

[4] = biological target: T1, SIRT2; experiment: SIRT2 binding competition assay using Cy3-myristoyl-H4K16 peptide
Procedure: Competition assays where Cy3-myristoyl-H4K16 peptide was displaced from SIRT2 by 1 were performed as previously described. Assays were performed in PBS with 1 mM DTT at 23°C in a quartz microcuvette (160 μl assay volume). Briefly, the fluorescence intensity of 50 nM Cy3-myristoyl-H4K16 peptide was measured in the presence of 2.5 μM SIRT2 and increasing amounts of 1 using excitation/emission wavelengths of 535 nm/560 nm. The final DMSO concentration in each measurement was 0.6%. As previously described, displacement of Cy3-myristoyl-H4K16 peptide from SIRT2 by a competitive ligand results in a reduction of its fluorescence.
(§2) The data from both competition assays show a reduction in probe fluorescence at increasing concentrations of competitor ligands. […] We determined and report absolute IC50 values from the curves which reflect ligand concentrations that reduce the fluorescence by 50% compared to control (no ligand) samples.

[5] = biological target: T1, SIRT2; experiment: SIRT2 de-dodecanoylase activity assay (MALDI-MS, dodecanoyl-H4K16 peptide); format: biochemical; settings: 0.5 μM dodecanoyl-H4K16, 1 mM NAD+
Procedure: as §1

[6] = tested on: acetylated alpha-tubulin in A549 SIRT2-KO cells; experiment: Immunofluorescence staining of acetylated alpha-tubulin in A549 SIRT2-KO cells; format: cell-based, human; settings: 100 μM, 6 hours
[7] = tested on: A549 cells; experiment: Cell viability MTT assay; format: cell-based, human; settings: 72 hours treatment, concentrations shown in Fig 4F and 4G
Procedure: 5,000 A549 cells were seeded in a 96-well plate in full DMEM. The total volume in each well was 150 μl, and the DMSO concentration was 0.7%. After this treatment period, 10 μl of MTT reagent was added to each well, then the cells were cultured for 4 hour before adding 100 μl of crystal dissolving solution for another 16 hour incubation (Cayman Chemical, catalog #10009365). The absorbance in each well was measured at 570 nm and was used to determine the cell viability by comparing the absorbance of drug treated cells to control (DMSO treated) cells.

[8] = biological target: T1, SIRT2; experiment: SIRT2 deacetylase activity assay (MALDI-MS, acetyl-H4K16 peptide); format: biochemical
Procedure: as §1

[9] = tested on: acetylated alpha-tubulin in A549 cells; experiment: Immunofluorescence staining of acetylated alpha-tubulin in A549 cells; format: cell-based, human; settings: 100 μM, 6 hours
Procedure: 100,000 A549 or A549 SIRT2-KO cells were seeded on a coverslip that was placed in the well of 6-well plate, and the cells were grown overnight in full DMEM. […] The cells were then washed three times with PBS, fixed with 4% paraformaldehyde for 10 min, then washed again three times with PBS. Cells were incubated with 0.2% Triton X-100 for 15 minutes on a shaker followed by three more PBS washes. The cells were then blocked with 2% BSA in PBS for 1 hour at room temperature. […] Slides were imaged using a Keyence BZ-X710 fluorescence microscope with the following filter settings: DAPI, excitation/emission was 300–400 nm/438-484 nm; Alexa Fluor 488, excitation/emission was 448 nm/500-550 nm. All images were obtained under identical conditions, and fluorescence intensities were quantified using Fiji/ImageJ without any manipulation to the images. The fluorescence intensity from at least six cells per coverslip were randomly selected and measured targeting the cytosol (for measuring acetylated alpha-tubulin levels via Alexa Fluor 488) or the nucleus (for measuring nuclear DNA staining via DAPI). Relative fluorescence intensity was calculated as the ratio of Alexa Fluor 488/DAPI intensities. […]

[10] = biological target: T2, human SIRT2 catalytic domain (6xHis-SUMO-SIRT2) (Homo sapiens, UniProt Q8IXJ6); experiment: biochemical
T2 sequence (Q8IXJ6 34-356): T1 sequence (Q8IXJ6 34-356)

[11] = biological target: T3, SIRT1 (Homo sapiens, UniProt Q96EB6); experiment: SIRT1 deacetylase activity assay; format: biochemical; settings: 1 μM acetyl-H4K16
T3 sequence (Q96EB6 1-747): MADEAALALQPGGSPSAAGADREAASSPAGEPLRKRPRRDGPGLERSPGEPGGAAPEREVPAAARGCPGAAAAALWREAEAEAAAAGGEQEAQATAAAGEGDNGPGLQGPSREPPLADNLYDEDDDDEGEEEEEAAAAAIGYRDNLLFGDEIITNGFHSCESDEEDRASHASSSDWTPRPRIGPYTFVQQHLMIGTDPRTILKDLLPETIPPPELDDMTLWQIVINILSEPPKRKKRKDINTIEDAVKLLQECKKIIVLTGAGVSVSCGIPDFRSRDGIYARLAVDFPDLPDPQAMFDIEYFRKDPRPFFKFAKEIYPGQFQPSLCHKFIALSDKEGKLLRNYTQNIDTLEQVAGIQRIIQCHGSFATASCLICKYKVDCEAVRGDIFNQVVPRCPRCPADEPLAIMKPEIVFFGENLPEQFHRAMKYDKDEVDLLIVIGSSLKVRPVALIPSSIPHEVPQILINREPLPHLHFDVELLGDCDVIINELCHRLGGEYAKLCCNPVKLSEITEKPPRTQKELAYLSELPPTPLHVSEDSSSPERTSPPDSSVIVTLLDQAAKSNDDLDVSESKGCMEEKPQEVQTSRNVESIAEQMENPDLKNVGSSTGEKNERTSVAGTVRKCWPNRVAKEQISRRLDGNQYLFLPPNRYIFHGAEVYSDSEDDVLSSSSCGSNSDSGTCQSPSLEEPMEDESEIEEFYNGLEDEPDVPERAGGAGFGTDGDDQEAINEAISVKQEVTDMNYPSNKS
Procedure: as §1

[12] = biological target: T1, SIRT2; settings: read-out: Deacetylase IC50; previously published; cited from earlier work
[13] = biological target: SIRT2—decanoyl peptide complex; set-up: method as in PMID 32941003; settings: cited from earlier work
[14] = biological target: T1, SIRT2; settings: read-out: IC50 for SIRT2 demyristoylase activity; cited from earlier work
[15] = biological target: T1, SIRT2; settings: read-out: Kd for SIRT2 alone; cited from earlier work
[16] = biological target: SIRT2—decanoyl-peptide complex (Homo sapiens, UniProt Q8IXJ6); experiment: 1-aminoanthracene binding competition assay, SIRT2—decanoyl-peptide complex
Procedure: (§3) Competition assays where 1-aminoanthracene was displaced from SIRT2 by 2, 4, 5, and 6 were performed as previously reported where we described its displacement from SIRT2 by 3. The assays were also cuvette-based and performed at 23°C in PBS with 1 mM DTT, and the final DMSO concentration was 0.6%. Briefly, the fluorescence intensity of 100 nM 1-aminoanthracene was measured in the presence of 4 μM SIRT2 and increasing amounts of ligand using excitation/emission wavelengths of 390 nm/520 nm. As previously described, displacement of 1-aminoanthracene from SIRT2 by a competitor results in a reduction of its fluorescence.
as §2

[17] = biological target: T1, SIRT2; experiment: 1-aminoanthracene binding competition assay, SIRT2 alone
Procedure: as §3
We determined and report absolute IC50 values from the curves which reflect ligand concentrations that reduce the fluorescence by 50% compared to control (no ligand) samples.

[18] = biological target: T1, SIRT2; experiment: Intact protein MALDI-MS for covalent adduct on SIRT2; settings: 100 μM ligand, 10 μM SIRT2, 37°C, 30 minutes
Procedure: (A) MALDI-MS spectra of 10 μM SIRT2 after incubation in PBS with 1% DMSO at 37°C for 30 minutes. (B) MALDI-MS spectra of 10 μM SIRT2 after incubation with 100 μM of 2 in PBS with 1% DMSO at 37°C for 30 minutes. The predicted monoisotopic mass for this SIRT2 protein was 36552 Da, and the predicted average mass was 36576 Da; thus, the main peaks represented +1 ions in the isotopic cluster. […] The intact protein spectra were acquired with a Bruker microflex instrument in linear, positive ion mode using sinapinic acid as the matrix. Sinapinic acid was dissolved in 50% acetonitrile/50% water with 0.1% trifluoroacetic acid, which was also used to dilute protein prior to spotting on the MALDI plate. (TIFF)

SIRT6, sequence (Q8N6T7 whole entry): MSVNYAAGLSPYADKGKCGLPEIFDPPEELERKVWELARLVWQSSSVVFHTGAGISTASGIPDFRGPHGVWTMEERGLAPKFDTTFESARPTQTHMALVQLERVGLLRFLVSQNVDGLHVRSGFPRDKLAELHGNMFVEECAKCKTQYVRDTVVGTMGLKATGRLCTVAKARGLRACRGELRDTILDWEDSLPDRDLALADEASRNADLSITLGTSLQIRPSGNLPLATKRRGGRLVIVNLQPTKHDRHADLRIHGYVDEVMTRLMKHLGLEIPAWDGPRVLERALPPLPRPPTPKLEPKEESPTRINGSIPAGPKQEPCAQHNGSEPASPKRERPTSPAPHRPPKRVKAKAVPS

## O=c1/c(=C\c2cc(Br)cc(I)c2O)sc2nc3ccccc3n12 [compound 1]
[1]
  IC50: 37 µM
[1]; 50 μM compound
  effect on the demyristoylase activity of SIRT2: considerably most effective
[2]
  effect on the demyristoylase activity of SIRT6: no effect
[3]
  IC50: 8 µM
[4]; 50 nM Cy3 peptide, 2.5 μM SIRT2, 23°C, read-out: IC50 for displacement of Cy3-myristoyl-H4K16 peptide from SIRT2
  IC50: 16 µM
[4]; calculated from IC50 of Cy3-myristoyl-H4K16 peptide competition assay
  Kd: 5 µM
[5]
  IC50: 39 µM
[6]
  level of acetylated alpha-tubulin (immunofluorescence): no effect
[7]
  viability / toxicity in A549 cells (MTT): did not cause toxicity; also recorded: no effect
[8]
  IC50: 7 µM
[9]
  level of acetylated alpha-tubulin (immunofluorescence): significantly increased; also recorded: enhanced fluorescence
[10]
  IC50: 6.92 µM
[11]
  IC50: 32 µM

## CC(C)c1cccc(C(C)C)c1O [compound 3, 2-6-diisopropylphenol]
[12]
  IC50: 140 µM
[13]
  Kd: 7 µM
[14]
  IC50: 195 µM
[15]
  Kd: 25 µM

## Oc1ccc(Br)cc1I [compound 2, 4-bromo-2-iodophenol]
[1]; 0.5 μM myristoyl-H4K16, 1 mM NAD+, 37°C, absolute IC50, "no effect" = 200 μM compound did not significantly affect SIRT2 activity
  Demyristoylase IC50: no effect
[16]
  Kd: 3 µM
[16]; SIRT2-decanoyl peptide complex, 100 nM 1-aminoanthracene, 4 μM SIRT2, 10 μM decanoyl-H4K16 peptide
  IC50: 7 µM
[16]; stronger for the complex
  affinity for SIRT2—decanoyl-peptide complex compared to SIRT2 alone: 23 fold
[17]; SIRT2 only, 100 nM 1-aminoanthracene, 4 μM SIRT2
  IC50: 75 µM
[17]; read-out: SIRT2 Kd
  Kd: 68 µM
[18]
  covalent reaction with SIRT2 (intact protein mass spectrometry): does not irreversibly attach to SIRT2 or form any type of covalent adduct; also recorded: does not covalently react with SIRT2
[8]
  IC50: 9 µM
